Here are results for 14 molecules from EP4678638A1, “NEW E3 UBIQUITIN LIGASE LIGAND, PROTEIN DEGRADATION AGENT AND USE THEREOF” (priority 2023, dated 2024).

SMILES strings stand for the structures. Read-outs that look alike come from different tables or passages of the source.

One assay relates to SR. The assay can be described thus: CCK-8 proliferation, SR. Format: cell-based, Human. The settings on record: Homo sapiens, SR cells, read-out: Inhibitory activity (IC50, nM) on tumor cell proliferation, SR. On the procedure: (§1) The tumor cells used herein were cultured in a cell culture medium listed in table A1 at 37°C in an incubator with 5% CO2. Prior to experimentation, all cell lines used were correctly identified by STR profiling, and tested negative for mycoplasma contamination using a mycoplasma detection kit through routine screenings. Table A1. Tumor cells and cell culture medium used in the present disclosure
(§2) IC50 values of the compounds of the present disclosure (including the compounds in Table 1, and compounds of examples) were measured using the Meilun Cell Counting Kit-8 kit from Dalian Meilun Biotech Co., Ltd. Assay details are as follows: tumor cells were seeded in a 96-well plate at a density listed in Table A2. After 24h, 100 µL of the inoculated cells were treated with 0.5µL of the compounds of the present disclosure (including the compounds in Tables 1 and 2, and compounds of examples) at 10 different successively decreasing concentrations (starting at the highest concentration of 10µM; 5-fold serial dilutions). After the cells were treated with the compounds of the present disclosure for a period of time, the cell viability detection reagent was added to the culture medium for cell viability assessment according to the instructions provided with the CCK-8 kit. […] The growth inhibition of the compounds of the present disclosure on cells was plotted by Prism Graphpad software, and the IC50 values of the compounds of the present disclosure were calculated therefrom. […] Seeding protocol and treatment time for tumor cells

The test system of the next assay is MCF7. The assay can be described thus: CCK-8 proliferation, MCF7 (MCF-7). The following applies: Homo sapiens, MCF7; Table B6, compounds designed based on the ALK inhibitors; MCF-7 cells; read-out: Inhibitory activity (IC50, nM) on tumor cell proliferation, MCF-7. Format: cell-based. The method, then:
as §1, §2

The subject of the next assay is H2228. The assay can be described thus: CCK-8 proliferation, NCI-H2228 (H2228). Format: cell-based. The following applies: Homo sapiens, NCI-H2228; Table B6, compounds designed based on the ALK inhibitors; H2228 cells; read-out: Inhibitory activity (IC50, nM) on tumor cell proliferation, H2228. The method, then:
as §1, §2

Another assay concerns MM.1S. The assay can be described thus: CCK-8 proliferation, MM.1S. It counts as cell-based. The settings on record: Homo sapiens, MM1.S, MM.1S cells, read-out: Inhibitory activity (IC50, nM) on tumor cell proliferation, MM.1S. On the procedure: as §1, §2
The next assay relates to H1975. The assay can be described thus: CCK-8 proliferation, NCI-H1975 (H1975). It counts as cell-based, Human. The settings on record: Homo sapiens, NCI-H1975; Table B6, compounds designed based on the ALK inhibitors; H1975 cells; read-out: Inhibitory activity (IC50, nM) on tumor cell proliferation, H1975. The method, boiled down:
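CCK-8 viability readout; IC50 from growth-inhibition curve fitting. Cells plated, dosed 24h later with a 10-point series, top 10µM, 5-fold steps. Culture at 37°C, 5% CO2.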

[1] abbreviates: Table B6, compounds designed based on the ALK inhibitors.
The mark [2] stands for this setting: Table B10, compounds designed based on the IRAK4 inhibitors.

Take `Cc1cc(Nc2ncc(Cl)c(Nc3ccccc3S(=O)(=O)C(C)C)n2)c(OC(C)C)cc1C1CCN(Cc2cncc(C3CCC(=O)NC3=O)c2)CC1` (centres unmarked) [GT-07601, 3-(5-((4-(4-((5-chloro-4-((2-(isopropylsulfonyl)phenyl)amino)pyrimidin-2-yl)amino)-5-isopropoxy-2-methylphenyl)piperidin-1-yl)methyl)pyridin-3-yl)piperidine-2,6-dione]: the IC50 in the assay on SR (setting [1]) is 10 to 50 nM; in the assay on MCF7, 100 to 500 nM; with H2228 it was 10 to 50 nM; in the assay on MM.1S (setting [1]) it was 500 to 1000 nM.
`Cc1cc(Nc2ncc(Cl)c(Nc3ccccc3S(=O)(=O)C(C)C)n2)c(OC(C)C)cc1C1CCN(Cc2ccnc(C3CCC(=O)NC3=O)c2)CC1` (centres unmarked) [GT-07599, 3-(4-((4-(4-((5-chloro-4-((2-(isopropylsulfonyl)phenyl)amino)pyrimidin-2-yl)amino)-5-isopropoxy-2-methylphenyl)piperidin-1-yl)methyl)pyridin-2-yl)piperidine-2,6-dione]: the IC50 fell in the range of 10 to 50 nM in the assay with SR (setting [1]), 100 to 500 nM in the assay on MCF7, 100 to 500 nM in the assay with H2228 and 500 to 1000 nM in the assay with MM.1S (setting [1]).
As to `COc1cc(N2CCN(Cc3ccnc(N4CCC(=O)NC4=O)c3)CC2)ccc1Nc1ncc(Cl)c(Nc2ccccc2P(C)(C)=O)n1` [GT-07708, 1-(4-((4-(4-((5-chloro-4-((2-(dimethylphosphoryl)phenyl)amino)pyrimidin-2-yl)amino)-3-methoxyphenyl)piperazin-1-yl)methyl)pyridin-2-yl)dihydropyrimidine-2,4(1H,3H)-dione], the IC50 with SR (setting [1]) lay in the range of 10 to 50 nM; in the assay with MCF7 it was 500 to 1000 nM; with H2228, 100 to 500 nM; in the assay with H1975 it was 100 to 500 nM.
For `O=C1CCN(c2ccc(CN3CCC(n4cc(NC(=O)c5cnn6ccc(N7C[C@H]8C[C@@H]7CO8)nc56)c(C(F)F)n4)CC3)nc2)C(=O)N1` [GT-05053, 5-((1R,4R)-2-oxa-5-azabicyclo[2.2.1]heptan-5-yl)-N-(3-(difluoromethyl)-1-(1-((5-(2,4-dioxotetrahydropyrimidin-1(2H)-yl)pyridin-2-yl)methyl)piperidin-4-yl)-1H-pyrazol-4-yl)pyrazolo[1,5-a]pyrimidine-3-carboxamide], the IC50 in the assay on MM.1S (setting [2]) lay within 500 to 1000 nM.
`O=C1CCC(c2ccc(CN3CCN(Cc4ccc5c(c4)nc(NC(=O)c4cccc(C(F)(F)F)c4)n5[C@H]4CC[C@@H](CO)CC4)CC3)cc2)C(=O)N1` (some centres unmarked) [GT-04978, N-(5-((4-(4-(2,6-dioxopiperidin-3-yl)benzyl)piperazin-1-yl)methyl)-1-((1s,4s)-4-(hydroxymethyl)cyclohexyl) -1H-benzo[d]imidazol-2-yl)-3-(trifluoromethyl)benzamide]: the IC50 lay in the range of 100 to 500 nM in the assay on SR (setting [2]) and 500 to 1000 nM with MM.1S (setting [2]).
On to `COc1cc(N2CCC(N(C)Cc3cc(N4CCC(=O)NC4=O)ncc3F)CC2)ccc1Nc1ncc(Cl)c(Nc2ccccc2P(C)(C)=O)n1` [GT-07693, 1-(4-(((1-(4-((5-chloro-4-((2-(dimethylphosphoryl)phenyl)amino)pyrimidin-2-yl)amino)-3-methoxyphenyl)piperidin-4-yl)(methyl)amino)methyl)-5-fluoropyridin-2-yl)dihydropyrimidine-2,4(1H,3H)-dione], for which the IC50 with SR (setting [1]) was in the range of 10 to 50 nM; in the assay on MCF7 it was 100 to 500 nM; in the assay with H2228 it was 100 to 500 nM; with H1975, 100 to 500 nM.
As to `COc1cc(N2CCC(N3CCN(Cc4ccc(N5CCC(=O)NC5=O)cc4)CC3)CC2)ccc1Nc1ncc(Cl)c(Nc2ccccc2P(C)(C)=O)n1` [GT-07603, 1-(4-((4-(1-(4-((5-chloro-4-((2-(dimethylphosphoryl)phenyl)amino)pyrimidin-2-yl)amino)-3-methoxyphenyl)piperidin-4-yl)piperazin-1-yl)methyl)phenyl)dihydropyr imidine-2,4(1H,3H)-dione], the IC50 in the assay on SR (setting [1]) fell in the range of 10 to 50 nM; in the assay on MCF7, 100 to 500 nM; with H2228 it was 10 to 50 nM; in the assay with MM.1S (setting [1]) it was 500 to 1000 nM; in the assay on H1975, 100 to 500 nM.
`COc1cc(N2CCN(Cc3cc(C4CCC(=O)NC4=O)cnc3F)CC2)ccc1Nc1ncc(Cl)c(Nc2ccccc2P(C)(C)=O)n1` (centres unmarked) [GT-07710, 3-(5-((4-(4-((5-chloro-4-((2-(dimethylphosphoryl)phenyl)amino)pyrimidin-2-yl)amino)-3-methoxyphenyl)piperazin-1-yl)methyl)-6-fluoropyridin-3-yl)piperidine-2,6-dione]: the IC50 was in the range of 10 to 50 nM in the assay with SR (setting [1]), 100 to 500 nM in the assay with MCF7, 500 to 1000 nM in the assay with H2228 and 500 to 1000 nM with H1975.
For the molecule `COc1cc(N2CCN(Cc3cc(N4CCC(=O)NC4=O)ncc3F)CC2)ccc1Nc1ncc(Cl)c(Nc2ccccc2P(C)(C)=O)n1` [GT-07707, 1-(4-((4-(4-((5-chloro-4-((2-(dimethylphosphoryl)phenyl)amino)pyrimidin-2-yl)amino)-3-methoxyphenyl)piperazin-1-yl)methyl)-5-fluoropyridin-2-yl)dihydropyrimidine-2,4(1H,3H)-dione], the IC50 with SR (setting [1]) was 10 to 50 nM; in the assay on MCF7, 500 to 1000 nM; in the assay on H2228 it was 100 to 500 nM; in the assay with H1975 it was 500 to 1000 nM.
As for `CCc1cc2c(cc1N1CCC(N3CCN(Cc4cncc(C5CCC(=O)NC5=O)c4)CC3)CC1)C(C)(C)c1[nH]c3cc(C#N)ccc3c1C2=O` (centres unmarked) [GT-07706, 8-(4-(4-((5-(2,6-dioxopiperidin-3-yl)pyridin-3-yl)methyl)piperazin-1-yl)piperidin-1-yl)-9-ethyl-6,6-dimethyl-11-oxo-6,11-dihydro-5H-benzo[b]carbazole-3-carbonitrile], the IC50 with SR (setting [1]) lay within 1 to 10 nM; in the assay on MCF7, 500 to 1000 nM; in the assay on H2228, 50 to 100 nM; in the assay on MM.1S (setting [1]), 500 to 1000 nM; with H1975, 500 to 1000 nM.
Regarding `CCc1cc2c(cc1N1CCC(N3CCN(Cc4ccnc(N5CCC(=O)NC5=O)c4)CC3)CC1)C(C)(C)c1[nH]c3cc(C#N)ccc3c1C2=O` [GT-07701, 8-(4-(4-((2-(2,4-dioxotetrahydropyrimidin-1(2H)-yl)pyridin-4-yl)methyl)piperazin-1-yl)piperidin-1-yl)-9-ethyl-6,6-dimethyl-11-oxo-6,11-dihydro-5H-benzo[b]carbazole-3-carbonitrile], the IC50 was in the range of 1 to 10 nM in the assay with SR (setting [1]), 500 to 1000 nM in the assay with MCF7 and 50 to 100 nM in the assay with H2228.
Take `CCc1cc2c(cc1N1CCC(N3CCN(Cc4ccc(C5CCC(=O)NC5=O)cn4)CC3)CC1)C(C)(C)c1[nH]c3cc(C#N)ccc3c1C2=O` (centres unmarked) [GT-07705, 8-(4-(4-((5-(2,6-dioxopiperidin-3-yl)pyridin-2-yl)methyl)piperazin-1-yl)piperidin-1-yl)-9-ethyl-6,6-dimethyl-11-oxo-6,11-dihydro-5H-benzo[b]carbazole-3-carbonitrile]: the IC50 in the assay on SR (setting [1]) is 1 to 10 nM; in the assay on MCF7, 100 to 500 nM; in the assay on H2228, 50 to 100 nM; in the assay on H1975, 500 to 1000 nM.
For `CCc1cc2c(cc1N1CCC(N3CCN(Cc4ccc(N5CCC(=O)NC5=O)cn4)CC3)CC1)C(C)(C)c1[nH]c3cc(C#N)ccc3c1C2=O` [GT-07311, 8-(4-(4-((5-(2,4-dioxotetrahydropyrimidin-1(2H)-yl)pyridin-2-yl)methyl)piperazin-1-yl)piperidin-1-yl)-9-ethyl-6,6-dimethyl-11-oxo-6,11-dihydro-5H-benzo[b]carbazole-3-carbonitrile], the IC50 with SR (setting [1]) was 1 to 10 nM; in the assay with MCF7, 500 to 1000 nM; in the assay on H2228, 50 to 100 nM; with MM.1S (setting [1]), 500 to 1000 nM; in the assay on H1975 it was 500 to 1000 nM.
Consider `Cc1cc(Nc2ncc(Cl)c(Nc3ccccc3S(=O)(=O)C(C)C)n2)c(OC(C)C)cc1C1CCN(Cc2cncc(N3CCC(=O)NC3=O)c2)CC1` [GT-07597, 1-(5-((4-(4-((5-chloro-4-((2-(isopropylsulfonyl)phenyl)amino)pyrimidin-2-yl)amino)-5-isopropoxy-2-methylphenyl)piperidin-1-yl)methyl)pyridin-3-yl)dihydropyrimidine-2,4(1H,3H)-dione], for which the IC50 in the assay on SR (setting [1]) was in the range of 10 to 50 nM; in the assay with MCF7, 500 to 1000 nM; in the assay with H2228, 50 to 100 nM; in the assay on MM.1S (setting [1]) it was 500 to 1000 nM.
